Results from patent publication US8846711B2, “Heterocyclic acrylamides and their use as pharmaceuticals” (Fab Pharma S.A.S., priority 2009, dated 2014).
In brackets after ≈: the same amount, converted by molar mass.

How the values were obtained:
Format in all cases: cell-based
[1] = system: S. aureus CIP 54.146; assay: MIC determination using broth microdilution method; conditions: Staphylococcus aureus, CIP54 / MSSA, read-out: MIC (μg/ml) S. aureus CIP 54.146
Description: The compounds of the invention are useful antibacterial agents having a selective spectrum of activity in vitro against bacterial strains relying on FabI and related targets. […] The activity is presented as Minimum Inhibitory Concentration (MIC) expressed in μg/ml and was determined using broth microdilution or Agar dilution methods.
(§1) Antibacterial activity was determined on strains from Mutabilis internal collection.
This protocol is compliant with Clinical Laboratory Standards Institute (CLSI) methodology as described in M7-A7 document of the CLSI. The compound to be tested is diluted according to a geometric series of reason 2 in pure DMSO. Dilutions are transferred in sterile polystyrene microplates, followed by mid-log phase bacteria in cation-adjusted Muller-Hinton broth (ca-MHB, Fluka, Reference 90922) with a final inoculum of 5×10^5 cfu/ml. Microplates are incubated overnight at 35° C. MIC is defined as the lowest concentration of antimicrobial agent that completely prevents visible bacterial growth. All manipulations, but compound handling (in pure DMSO), are performed under sterile conditions. The final concentration of DMSO in the plates is 2%.

[2] = system: Staphylococcus aureus NRS119; assay: MIC determination using agar dilution method; conditions: MRSA / NRS 119, read-out: MIC (μg/ml) NRS119
Description: as §1
(§2) This protocol is compliant with Clinical Laboratory Standards Institute (CLSI) methodology as described in M7-A7 document of the CLSI. The compound to be tested is incorporated into Mueller-Hinton Agar medium (Fluka, Reference 70191) at one concentration per plate according to a geometric series of reason 2. Plates are inoculated with mid-log phase bacteria (inoculum=1×10^4 cfu/spot) and incubated overnight at 35° C. […] All manipulations, but compound handling (in pure DMSO), are performed under sterile conditions. The final DMSO concentration of DMSO in the plates is 2%. Vancomycin is used as reference.

[3] = system: Staphylococcus aureus NRS262; assay: MIC determination using agar dilution method; conditions: MSSA / NRS 262, read-out: MIC (μg/ml) NRS262
Description: as §1, §2

[4] = system: Staphylococcus aureus NRS382; assay: MIC determination using agar dilution method; conditions: MRSA / NRS 382, read-out: MIC (μg/ml) NRS382
Description: as §1, §2

[5] = system: C. albicans (ATCC 90028); assay: MIC determination using susceptibility method (broth microdilution); conditions: Candida albicans, ATCC90028, read-out: MIC (μg/ml) C. albicans (ATCC 90028)
Description: (§3) Minimum inhibitory concentrations (MICs) were determined by broth microdilution according to CLSI guidelines (CLSI, M100-20^1, M7-A8^2, M27-A3^3). The compounds were tested in the range from […]. Colonies were taken directly from a second-pass culture plate and prepared to a suspension equivalent to the 0.5 McFarland standard using normal saline. […] The panels were incubated at 35° C. for 16 to 20 hours before reading the MIC endpoints. The compounds of Examples 12, 29, 59, 63 and 66-71 were dissolved in DMSO to make the initial solutions of 5120 μg/ml. These solutions were diluted 1:10 in sterile water to a stock solution of 512 μg/ml. The stock solutions were further diluted into the appropriate broth medium for the sequential dilutions used in the broth microdilution panels. S. pneumoniae was tested in Mueller Hinton (MH) broth with 3% lysed horse blood and C. albicans was tested in RPMI-1640 medium. All other organisms were tested in MH broth.

[6] = system: E. coli (ATCC 25922); assay: as above; conditions: Escherichia coli, ATCC25922, read-out: MIC (μg/ml) E. coli (ATCC 25922)
Description: as §3

[7] = system: E. faecalis (ATCC 29212); assay: as above; conditions: Enterococcus faecalis, ATCC29212, read-out: MIC (μg/ml) E. faecalis (ATCC 29212)
Description: as §3

[8] = system: MRSA (IHMA #510059); assay: as above; conditions: Staphylococcus aureus, read-out: MIC (μg/ml) MRSA (IHMA #510059)
Description: as §3

[9] = system: MSSA (IHMA #555189); assay: as above; conditions: Staphylococcus aureus, read-out: MIC (μg/ml) MSSA (IHMA #555189)
Description: as §3

[10] = system: S. aureus ATCC 29213; assay: as above; conditions: Staphylococcus aureus, ATCC29213, read-out: MIC (μg/ml) S. aureus ATCC 29213
Description: as §3

[11] = system: S. pneumoniae (ATCC 49619); assay: as above; conditions: Streptococcus pneumoniae, ATCC49619, read-out: MIC (μg/ml) S. pneumoniae (ATCC 49619)
Description: as §3

O=C1CCc2cc(/C=C/C(=O)N3CC(OCc4cccs4)C3)cnc2N1 [Example 12, 6-{(1E)-3-Oxo-3-[3-(2-thienylmethoxy)azetidin-1-yl]prop-1-en-1-yl}-3,4-dihydro-1,8-naphthyridin-2(1H)-one]
MIC [1]: 4 µg/mL (≈ 10.8 µM)
MIC [2]: 2 µg/mL (≈ 5.41 µM)
MIC [3]: 4 µg/mL (≈ 10.8 µM)
MIC [4]: 4 µg/mL (≈ 10.8 µM)
MIC [5]: > 128 µg/mL
MIC [6]: > 128 µg/mL
MIC [7]: > 128 µg/mL
MIC [8]: 1 µg/mL (≈ 2.71 µM)
MIC [9]: 1 µg/mL (≈ 2.71 µM)
MIC [10]: 1 µg/mL (≈ 2.71 µM)
MIC [11]: > 128 µg/mL
